# In publication PMC4742970 (Nature Communications, 2016):
# T1: Msh2–Msh3 (Msh2HA–Msh3) (Saccharomyces cerevisiae, UniProt P25336+P25847)
# T1 construct: heterodimer overexpressed in and purified from yeast; labelled with anti-HA quantum dots in single-molecule tests
# T1 sequence (P25847 1-964): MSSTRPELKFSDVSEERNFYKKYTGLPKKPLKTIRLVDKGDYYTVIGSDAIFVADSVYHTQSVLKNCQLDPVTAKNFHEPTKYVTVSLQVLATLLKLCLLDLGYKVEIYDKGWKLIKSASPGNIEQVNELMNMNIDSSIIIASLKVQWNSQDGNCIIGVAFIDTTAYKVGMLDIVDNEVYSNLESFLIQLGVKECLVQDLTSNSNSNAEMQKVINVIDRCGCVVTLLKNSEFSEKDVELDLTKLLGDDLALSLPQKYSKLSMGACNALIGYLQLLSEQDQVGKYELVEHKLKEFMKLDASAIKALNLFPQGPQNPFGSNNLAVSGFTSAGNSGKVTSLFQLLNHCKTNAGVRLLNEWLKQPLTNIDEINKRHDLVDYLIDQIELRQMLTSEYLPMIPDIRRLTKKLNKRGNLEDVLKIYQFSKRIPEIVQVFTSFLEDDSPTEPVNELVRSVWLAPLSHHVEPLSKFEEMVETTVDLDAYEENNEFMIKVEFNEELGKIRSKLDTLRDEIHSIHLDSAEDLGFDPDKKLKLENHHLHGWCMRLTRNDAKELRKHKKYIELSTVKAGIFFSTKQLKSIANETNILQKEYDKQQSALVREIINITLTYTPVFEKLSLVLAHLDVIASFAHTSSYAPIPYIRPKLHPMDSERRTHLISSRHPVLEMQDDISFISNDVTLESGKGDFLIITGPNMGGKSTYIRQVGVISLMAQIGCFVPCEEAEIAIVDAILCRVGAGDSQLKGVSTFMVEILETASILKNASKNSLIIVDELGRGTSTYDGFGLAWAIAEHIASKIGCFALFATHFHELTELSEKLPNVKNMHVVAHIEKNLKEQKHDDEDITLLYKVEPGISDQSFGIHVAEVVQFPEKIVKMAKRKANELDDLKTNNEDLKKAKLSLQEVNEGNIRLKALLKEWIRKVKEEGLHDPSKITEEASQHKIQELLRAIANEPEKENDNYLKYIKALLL
# T1 sequence (P25336 1-1018): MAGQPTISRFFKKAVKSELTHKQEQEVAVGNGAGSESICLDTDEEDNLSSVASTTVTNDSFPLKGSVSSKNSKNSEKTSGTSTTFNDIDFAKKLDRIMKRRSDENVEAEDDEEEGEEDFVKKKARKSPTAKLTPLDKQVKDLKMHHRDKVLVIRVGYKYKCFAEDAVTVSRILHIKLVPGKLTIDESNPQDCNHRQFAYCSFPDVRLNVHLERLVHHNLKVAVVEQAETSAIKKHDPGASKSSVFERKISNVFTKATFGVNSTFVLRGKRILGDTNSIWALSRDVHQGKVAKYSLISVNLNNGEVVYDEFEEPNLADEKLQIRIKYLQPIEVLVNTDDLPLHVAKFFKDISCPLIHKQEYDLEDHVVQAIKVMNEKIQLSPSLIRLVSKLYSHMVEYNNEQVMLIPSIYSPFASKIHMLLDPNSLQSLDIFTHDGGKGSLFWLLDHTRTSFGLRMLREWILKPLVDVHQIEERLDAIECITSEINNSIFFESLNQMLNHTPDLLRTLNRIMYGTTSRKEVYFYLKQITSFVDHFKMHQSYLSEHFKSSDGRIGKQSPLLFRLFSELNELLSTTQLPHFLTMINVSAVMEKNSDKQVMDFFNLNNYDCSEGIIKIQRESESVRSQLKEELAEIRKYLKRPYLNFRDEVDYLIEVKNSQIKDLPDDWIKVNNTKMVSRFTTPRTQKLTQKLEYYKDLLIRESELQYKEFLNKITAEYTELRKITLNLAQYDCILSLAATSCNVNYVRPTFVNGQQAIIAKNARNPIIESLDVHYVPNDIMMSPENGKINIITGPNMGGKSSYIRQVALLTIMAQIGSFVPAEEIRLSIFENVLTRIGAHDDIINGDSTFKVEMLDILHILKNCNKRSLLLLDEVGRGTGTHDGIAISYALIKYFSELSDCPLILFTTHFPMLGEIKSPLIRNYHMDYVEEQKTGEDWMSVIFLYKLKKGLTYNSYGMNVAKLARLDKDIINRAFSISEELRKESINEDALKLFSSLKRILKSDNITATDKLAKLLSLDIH
# B1: 3'-ssDNA flap LS1/LS3/LS16 (mixed)
# DNA 1: CACGCTACCGAATTCTGACTTGCTAGGACATCTTTGCCCACGTTGACCC
# DNA 2: TCGATAGTCTCTAGATAGCATGTCCTAGCAAGTCAGAATTCGGTAGCGTG
# DNA 3: GCTATCTAGAGACTATCGA
# Legend:
# Msh2–Msh3 (Msh2HA–Msh3) [1] = molecular target: T1, Msh2–Msh3 (Msh2HA–Msh3); assay: single-molecule diffusion on DNA curtains (TIRF); type: binding; conditions: 1 mM ADP, 50 mM NaCl, 40 mM Tris-HCl pH 8; functional effect on diffusion along homoduplex DNA
# Msh2–Msh3 (Msh2HA–Msh3) [2] = molecular target: T1, Msh2–Msh3 (Msh2HA–Msh3); assay: ATPase assay, gamma-32P-ATP, PEI-cellulose TLC; type: biochemical; conditions: 20-250 μM ATP, 2 mM MgCl2, pH 7.5, 30 °C, 100 nM protein, with or without 2 μM DNA
# Msh2(HA)-Msh3 = Msh2(HA)-Msh3 (Saccharomyces cerevisiae, UniProt P25847;P25336 1-964;1-1018); assay: EMSA; no antibody or QD; EMSA: 20 mM HEPES pH 7.5, 100 mM NaCl, 1 mM DTT, 40 ug/ml BSA, 2 mM MgCl2, RT; curtains: 40 mM Tris-HCl pH 8, 25-150 mM NaCl, 2 mM MgCl2, 1-2 mM DTT, 0.2 mg/ml
molecule,measurement,setting,value
Nc1ncnc2c1ncn2[C@@H]1O[C@H](COP(=O)(O)OP(=O)(O)O)[C@@H](O)[C@H]1O [ADP],single-molecule diffusion on DNA curtains (TIRF),Msh2–Msh3 (Msh2HA–Msh3) [1],Here we show that ADP and ATP also alter the interactions of the yeast Msh2–Msh3
Nc1ncnc2c1ncn2[C@@H]1O[C@H](COP(=O)(O)OP(=O)(O)OP(=O)(O)O)[C@@H](O)[C@H]1O [ATP],"ATPase assay, gamma-32P-ATP, PEI-cellulose TLC",Msh2–Msh3 (Msh2HA–Msh3) [2],Gel shift and ATPase assays indicated that the QD-tagged Msh2–Msh3 retained biochemical activities
B1,binding result,Msh2(HA)-Msh3,binds
